Assay results from patent US8802597B2, “Herbicidal pyrimidines” (E I du Pont de Nemours and Company, priority 2003, dated 2014).
Read-outs that look alike come from different tables or passages of the source.

Experiments:
Type in all cases: in vivo
[1] = system: umbrella sedge (Cyperus difformis); assay: Test B flooded paddy test; conditions: Cyperus difformis, Flood, 1000 g ai/ha; scale 0 to 100; read-out: Plant response rating, Sedge, Umbrella
Summary of the method: (§1)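 Plants were grown to the 2-leaf stage before treatment, then kept in a greenhouse for 13 to 15 days. Injury was rated visually against untreated controls on a 0 to 100 scale, where 0 is no effect and 100 is complete control.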

rice (Oryza sativa) = assay: Test B flooded paddy test; conditions: Oryza sativa, Flood, 1000 g ai/ha; scale 0 to 100; read-out: Plant response rating, Rice
Summary of the method: as §1

[2] = system: barnyardgrass (Echinochloa crus-galli); assay: Test B flooded paddy test; conditions: Echinochloa crus-galli, Flood, 1000 g ai/ha; scale 0 (no effect) to 100 (complete control); read-out: Plant response rating, Barnyardgrass
Summary of the method: as §1

[3] = system: duck salad (Heteranthera limosa); assay: Test B flooded paddy test; conditions: Heteranthera limosa, Flood, 1000 g ai/ha; scale 0 to 100; read-out: Plant response rating, Ducksalad
Summary of the method: as §1

[4] = system: Surinam grass (Brachiaria decumbens); assay: Test B pre/postemergence; conditions: Urochloa decumbens; for pest or weed control at 125 g/ha: 125 g ai/ha; for pest or weed control at 500 g/ha: 500 g ai/ha
Summary of the method: (§2)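 Visual injury scored 0 (no effect) to 100 (complete control) versus untreated controls after 13 to 15 days in greenhouse. Treatments were pre- or postemergence sprays of surfactant-containing solvent formulations; postemergence plants at 1- to 4-leaf stage, 2 to 18 cm.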

[5] = system: crabgrass (Digitaria sanguinalis); assay: Test B pre/postemergence; conditions: for pest or weed control at 500 g/ha: 500 g ai/ha
Summary of the method: as §2

[6] = system: pigweed (Amaranthus retroflexus); assay: Test B pre/postemergence; conditions: Amaranthus retroflexus; for pest or weed control at 125 g/ha: 125 g ai/ha; for pest or weed control at 500 g/ha: 500 g ai/ha
Summary of the method: as §2

[7] = system: morningglory (Ipomoea coccinea); assay: Test B pre/postemergence; conditions: for pest or weed control at 500 g/ha: 500 g ai/ha
Summary of the method: as §2

corn (Zea mays) = assay: Test B pre/postemergence
Summary of the method: as §2

[8] = system: giant foxtail (Setaria faberii); assay: Test B pre/postemergence; conditions: for pest or weed control at 500 g/ha: Setaria faberi, 500 g ai/ha
Summary of the method: as §2

[9] = system: velvetleaf (Abutilon theophrasti); assay: Test B pre/postemergence; conditions: Abutilon theophrasti; for pest or weed control at 125 g/ha: 125 g ai/ha; for pest or weed control at 500 g/ha: 500 g ai/ha
Summary of the method: as §2

[10] = system: wheat (Triticum aestivum); assay: Test B pre/postemergence; conditions: for plant injury at 500 g/ha: 500 g ai/ha
Summary of the method: as §2

[11] = system: barnyardgrass (Echinochloa crus-galli); assay: Test B pre/postemergence; conditions: for pest or weed control at 500 g/ha: 500 g ai/ha
Summary of the method: as §2

[12] = system: lambsquarters (Chenopodium album); assay: Test B pre/postemergence; conditions: Chenopodium album; for pest or weed control at 125 g/ha: 125 g ai/ha; for pest or weed control at 500 g/ha: 500 g ai/ha
Summary of the method: as §2

[13] = system: cocklebur (Xanthium strumarium); assay: Test B pre/postemergence; conditions: Xanthium strumarium; for pest or weed control at 125 g/ha: 125 g ai/ha; for pest or weed control at 500 g/ha: 500 g ai/ha
Summary of the method: as §2

[14] = system: blackgrass (Alopecurus myosuroides); assay: Test B postemergence
Summary of the method: as §2

wild oat (Avena fatua) = assay: Test B postemergence
Summary of the method: as §2

[15] = Postemergence, 125 g ai/ha, scale 0 to 100 (0 no effect, 100 complete control)
[16] = Preemergence, 125 g ai/ha, scale 0 to 100 (0 no effect, 100 complete control)
[17] = 125 g ai/ha, scale 0 to 100 (0 no effect, 100 complete control)

## Nc1nc(C2CC2)nc(C(=O)O)c1Br [Compound 8]
[1]
  pest or weed control at 1000 g/ha: 40%
Rice (Oryza sativa)
  plant injury at 1000 g/ha: 60%
[2]
  pest or weed control at 1000 g/ha: 70%
[3]
  pest or weed control at 1000 g/ha: 90%
[4]; post-emergence, Postemergence, scale 0 to 100 (0 no effect, 100 complete control), read-out: Surinam Grass plant response rating
  pest or weed control at 125 g/ha: 80%
[4]; post-emergence, Postemergence, scale 0 to 100, read-out: Plant response rating, Surinam Grass
  pest or weed control at 500 g/ha: 90%
[4]; pre-emergence, Preemergence, scale 0 to 100 (0 no effect, 100 complete control), read-out: Plant response rating, Surinam Grass
  pest or weed control at 125 g/ha: 60%
[4]; pre-emergence, Preemergence, scale 0 to 100 (0 no effect, 100 complete control), read-out: Surinam Grass plant response rating
  pest or weed control at 500 g/ha: 90%
[5]; Digitaria sanguinalis, post-emergence, Postemergence, scale 0 to 100, read-out: Plant response rating, Crabgrass
  pest or weed control at 500 g/ha: 90%
[5]; Digitaria sanguinalis, pre-emergence, Preemergence, 125 g ai/ha, scale 0 to 100 (0 no effect, 100 complete control), read-out: Plant response rating, Crabgrass
  pest or weed control at 125 g/ha: 80%
[5]; Digitaria sanguinalis, pre-emergence, Preemergence, scale 0 to 100 (0 no effect, 100 complete control), read-out: Crabgrass plant response rating
  pest or weed control at 500 g/ha: 90%
[5]; [15]
  Crabgrass plant response rating: 80
[6]; post-emergence, Postemergence, scale 0 to 100 (0 no effect, 100 complete control), read-out: Pigweed plant response rating
  pest or weed control at 125 g/ha: 100%
[6]; post-emergence, Postemergence, scale 0 to 100, read-out: Plant response rating, Pigweed
  pest or weed control at 500 g/ha: 100%
[6]; pre-emergence, Preemergence, scale 0 to 100 (0 no effect, 100 complete control), read-out: Plant response rating, Pigweed
  pest or weed control at 125 g/ha: 100%
[6]; pre-emergence, Preemergence, scale 0 to 100 (0 no effect, 100 complete control), read-out: Pigweed plant response rating
  pest or weed control at 500 g/ha: 100%
[7]; Ipomoea, post-emergence, Postemergence, 125 g ai/ha, scale 0 to 100 (0 no effect, 100 complete control), read-out: Morningglory plant response rating
  pest or weed control at 125 g/ha: 100%
[7]; Ipomoea, post-emergence, Postemergence, scale 0 to 100, read-out: Plant response rating, Morningglory
  pest or weed control at 500 g/ha: 100%
[7]; Ipomoea, pre-emergence, Preemergence, scale 0 to 100 (0 no effect, 100 complete control), read-out: Morningglory plant response rating
  pest or weed control at 500 g/ha: 100%
[7]; [16]
  Plant response rating, Morningglory: 100
Corn (Zea mays); [15]
  Corn plant response rating: 70
Corn (Zea mays); [16]
  Plant response rating, Corn: 90
Corn (Zea mays); Zea mays, post-emergence, Postemergence, 500 g ai/ha, scale 0 to 100
  Corn plant response rating (crop injury, 0 = no effect, 100 = complete kill) at 500 g/ha: 90%
Corn (Zea mays); Zea mays, pre-emergence, Preemergence, 500 g ai/ha, scale 0 to 100 (0 no effect, 100 complete control), read-out: Corn plant response rating
  plant injury at 500 g/ha: 90%
[8]; [15]
  Foxtail, Giant plant response rating: 80
[8]; [16]
  Plant response rating, Foxtail, Giant: 50
[8]; post-emergence, Postemergence, scale 0 to 100, read-out: Plant response rating, Foxtail, Giant
  pest or weed control at 500 g/ha: 90%
[8]; pre-emergence, Preemergence, scale 0 to 100 (0 no effect, 100 complete control), read-out: Foxtail, Giant plant response rating
  pest or weed control at 500 g/ha: 90%
[9]; post-emergence, Postemergence, scale 0 to 100 (0 no effect, 100 complete control), read-out: Velvetleaf plant response rating
  pest or weed control at 125 g/ha: 80%
[9]; post-emergence, Postemergence, scale 0 to 100, read-out: Plant response rating, Velvetleaf
  pest or weed control at 500 g/ha: 100%
[9]; pre-emergence, Preemergence, scale 0 to 100 (0 no effect, 100 complete control), read-out: Plant response rating, Velvetleaf
  pest or weed control at 125 g/ha: 80%
[9]; pre-emergence, Preemergence, scale 0 to 100 (0 no effect, 100 complete control), read-out: Velvetleaf plant response rating
  pest or weed control at 500 g/ha: 100%
[10]; [15]
  Wheat plant response rating: 0
[10]; Triticum aestivum, post-emergence, Postemergence, scale 0 to 100, read-out: Plant response rating, Wheat
  plant injury at 500 g/ha: 0%
[10]; Triticum aestivum, pre-emergence, Preemergence, 125 g ai/ha, scale 0 to 100 (0 no effect, 100 complete control), read-out: Plant response rating, Wheat
  plant injury at 125 g/ha: 60%
[10]; Triticum aestivum, pre-emergence, Preemergence, scale 0 to 100 (0 no effect, 100 complete control), read-out: Wheat plant response rating
  plant injury at 500 g/ha: 80%
[11]; Echinochloa crus-galli, post-emergence, Postemergence, 125 g ai/ha, scale 0 to 100 (0 no effect, 100 complete control), read-out: Barnyardgrass plant response rating
  pest or weed control at 125 g/ha: 90%
[11]; Echinochloa crus-galli, post-emergence, Postemergence, scale 0 to 100, read-out: Plant response rating, Barnyardgrass
  pest or weed control at 500 g/ha: 90%
[11]; Echinochloa crus-galli, pre-emergence, Preemergence, scale 0 to 100 (0 no effect, 100 complete control), read-out: Barnyardgrass plant response rating
  pest or weed control at 500 g/ha: 90%
[11]; [16]
  Plant response rating, Barnyardgrass: 70
[12]; post-emergence, Postemergence, scale 0 to 100 (0 no effect, 100 complete control), read-out: Lambsquarters plant response rating
  pest or weed control at 125 g/ha: 100%
[12]; post-emergence, Postemergence, scale 0 to 100, read-out: Plant response rating, Lambsquarters
  pest or weed control at 500 g/ha: 100%
[12]; pre-emergence, Preemergence, scale 0 to 100 (0 no effect, 100 complete control), read-out: Plant response rating, Lambsquarters
  pest or weed control at 125 g/ha: 90%
[12]; pre-emergence, Preemergence, scale 0 to 100 (0 no effect, 100 complete control), read-out: Lambsquarters plant response rating
  pest or weed control at 500 g/ha: 100%
[13]; post-emergence, Postemergence, scale 0 to 100 (0 no effect, 100 complete control), read-out: Cocklebur plant response rating
  pest or weed control at 125 g/ha: 100%
[13]; post-emergence, Postemergence, scale 0 to 100, read-out: Plant response rating, Cocklebur
  pest or weed control at 500 g/ha: 100%
[13]; pre-emergence, Preemergence, scale 0 to 100 (0 no effect, 100 complete control), read-out: Plant response rating, Cocklebur
  pest or weed control at 125 g/ha: 90%
[13]; pre-emergence, Preemergence, scale 0 to 100 (0 no effect, 100 complete control), read-out: Cocklebur plant response rating
  pest or weed control at 500 g/ha: 100%
[14]; [17]
  Blackgrass plant response rating: 0
[14]; Alopecurus myosuroides, post-emergence, 500 g ai/ha, scale 0 to 100, read-out: Plant response rating, Blackgrass
  pest or weed control at 500 g/ha: 0%
Wild oat (Avena fatua); [17]
  Oat, Wild plant response rating: 0
Wild oat (Avena fatua); Avena fatua, post-emergence, 500 g ai/ha, scale 0 to 100, read-out: Plant response rating, Oat, Wild
  pest or weed control at 500 g/ha: 0%
